Key:
Conditions in all cases: 72 h
[1] = test system: Caco-2; experiment: cell viability relative to DMSO; higher = less toxic
[2] = test system: Calu-3; experiment: as above
[3] = test system: HepG2; experiment: as above
[4] = test system: U2OS; experiment: as above
[5] = test system: Caco-2; experiment: relative viability EC50 (midpoint between 100% and the lowest measured viability); higher = less toxic
[6] = test system: Calu-3; experiment: as above
[7] = test system: HepG2; experiment: as above
[8] = test system: U2OS; experiment: as above
[9] = test system: Caco-2; experiment: drug sensitivity score (DSS) for viability; higher = more toxic; extreme values may be limits of the assay
[10] = test system: Calu-3; experiment: as above
[11] = test system: HepG2; experiment: as above
[12] = test system: U2OS; experiment: as above
[13] = test system: Vero E6; experiment: cell viability relative to DMSO; higher = less toxic
[14] = test system: Vero E6; experiment: drug sensitivity score (DSS) for viability; higher = more toxic; extreme values may be limits of the assay
[15] = test system: Vero E6; experiment: relative viability EC50 (midpoint between 100% and the lowest measured viability); higher = less toxic

| SMILES | cell viability ([1]; 1 nM) [%] | cell viability ([1]; 10 nM) [%] | cell viability ([1]; 100 nM) [%] | cell viability ([1]; 1000 nM) [%] | cell viability ([1]; 10000 nM) [%] | cell viability ([2]; 1 nM) [%] | cell viability ([2]; 10 nM) [%] | cell viability ([2]; 100 nM) [%] | cell viability ([2]; 1000 nM) [%] | cell viability ([2]; 10000 nM) [%] | cell viability ([3]; 1 nM) [%] | cell viability ([3]; 10 nM) [%] | cell viability ([3]; 100 nM) [%] | cell viability ([3]; 1000 nM) [%] | cell viability ([3]; 10000 nM) [%] | cell viability ([4]; 1 nM) [%] | cell viability ([4]; 10 nM) [%] | cell viability ([4]; 100 nM) [%] | cell viability ([4]; 1000 nM) [%] | cell viability ([4]; 10000 nM) [%] | relative viability EC50 [5] [µM] | relative viability EC50 [6] [µM] | relative viability EC50 [7] [µM] | relative viability EC50 [8] [µM] | drug sensitivity score [9] | drug sensitivity score [10] | drug sensitivity score [11] | drug sensitivity score [12] | cell viability ([13]; 1 nM) [%] | cell viability ([13]; 10 nM) [%] | cell viability ([13]; 100 nM) [%] | cell viability ([13]; 1000 nM) [%] | cell viability ([13]; 10000 nM) [%] | drug sensitivity score [14] | relative viability EC50 [15] [µM] |
| --- | --- | --- | --- | --- | --- | --- | --- | --- | --- | --- | --- | --- | --- | --- | --- | --- | --- | --- | --- | --- | --- | --- | --- | --- | --- | --- | --- | --- | --- | --- | --- | --- | --- | --- | --- |
| CCCCCCCCCCCCCC(=O)[O-].CCCCCCCCCCCCCC(=O)[O-].N[C@@H]1CCCC[C@H]1N.[Pt+2] [miriplatin] | 102 | 93.5 | 98.1 | 91.2 | 104 | 90.9 | 101 | 104 | 99.2 | 87.4 | 105 | 101 | 106 | 97.1 | 92.1 | 100 | 97.7 | 99.2 | 95.4 | 99.3 | > 10 | > 10 | > 10 | > 10 | 0 | 0.1 | 0 | 0 | – | – | – | – | – | – | – |
| CCOC(=O)N1CSC[C@H]1C(=O)O [telmesteine] | 109 | 93.6 | 100 | 90.2 | 95.5 | 97.9 | 91 | 94.8 | 107 | 102 | 101 | 109 | 105 | 90.1 | 88.9 | 97.1 | 100 | 99.2 | 96.4 | 99 | > 10 | > 10 | > 10 | > 10 | 0 | 0 | 0.2 | 0 | – | – | – | – | – | – | – |
| O=C(O)/C=C/c1ccc(-c2ccc(O)c(C34CC5CC(CC(C5)C3)C4)c2)cc1 [adarotene] | 87.5 | 96.7 | 96.8 | 38 | 35.3 | 96.9 | 103 | 98.4 | 56.5 | 24.4 | 97.9 | 94.6 | 95.7 | 29.1 | 27.1 | 93.9 | 98.5 | 101 | 14.5 | 11.8 | 0.306 | 0.854 | 0.285 | 0.347 | 12 | 9.4 | 13.7 | 15.5 | 94 | 104 | 102 | 53.4 | 54.4 | 8.3 | – |
| CC12CC3CC(C)(C1)CC(N)(C3)C2 [memantine] | 102 | 91.8 | 90.3 | 96.9 | 96.9 | 101 | 98.8 | 98.3 | 99.7 | 87.1 | – | – | – | – | – | 97.3 | 96.4 | 96.6 | 99.6 | 98.9 | > 10 | > 10 | – | > 10 | 0 | 0.1 | – | 0 | 106 | 99.1 | 105 | 102 | 96.6 | 0 | > 10 |
| O=C(O)c1cc(/N=N/c2ccc(S(=O)(=O)Nc3ccccn3)cc2)ccc1O [sulfasalazine] | 108 | 99.5 | 89.9 | 96.6 | 112 | 101 | 102 | 102 | 104 | 91.5 | – | – | – | – | – | 98.6 | 99.1 | 97.4 | 102 | 98.1 | > 10 | > 10 | – | > 10 | 0 | 0 | – | 0 | 104 | 103 | 107 | 98.7 | 97.6 | 0 | > 10 |
| CCCCCCc1ccc(O)cc1O.Nc1c2ccccc2nc2ccccc12 [acrisorcin] | 99.5 | 103 | 96.6 | 96.7 | 47.4 | 99.1 | 88.3 | 101 | 96.4 | 60.7 | 103 | 106 | 95.3 | 77.9 | 0.3 | 100 | 101 | 100 | 96.1 | 27.9 | 2.66 | – | 1.65 | 2.75 | 3.3 | 2.5 | 9 | 4.5 | 105 | 102 | 102 | 91.7 | 0.3 | 6.8 | 2.49 |
| O=C(O)c1cn(C2CC2)c2cc(N3CCNCC3)c(F)cc2c1=O [ciprofloxacin] | 112 | 100 | 108 | 112 | 79.1 | – | – | – | – | – | 106 | 104 | 114 | 78.1 | 99.8 | 100 | 97.8 | 98 | 96.4 | 103 | > 10 | – | > 10 | > 10 | 0.4 | – | 0 | 0 | 102 | 97.8 | 102 | 91.8 | 97.1 | 0 | > 10 |
| O=C(CN1C(=O)C2(CCCC2)NC[C@H]1c1cc(F)cc(F)c1)Nc1ccc2c(c1)C[C@@]1(C2)C(=O)Nc2ncccc21 [MK-3207] | 99 | 101 | 93 | 106 | 88.8 | 96.6 | 92.9 | 98.2 | 93.4 | 109 | 91.2 | 106 | 101 | 113 | 101 | 104 | 101 | 102 | 96.8 | 101 | > 10 | > 10 | > 10 | > 10 | 0 | 0 | 0 | 0 | – | – | – | – | – | – | – |
| CN[C@H](CC(C)C)C(=O)N[C@H]1C(=O)N[C@@H](CC(N)=O)C(=O)N[C@H]2C(=O)N[C@H]3C(=O)N[C@H](C(=O)N[C@H](C(=O)O)c4cc(O)cc(O)c4-c4cc3ccc4O)[C@H](O[C@H]3C[C@](C)(N)[C@@H](O)[C@H](C)O3)c3ccc(c(Cl)c3)Oc3cc2cc(c3O[C@@H]2O[C@H](CO)[C@@H](O)[C@H](O)[C@H]2O[C@H]2C[C@](C)(NCc3ccc(-c4ccc(Cl)cc4)cc3)[C@@H](O)[C@H](C)O2)Oc2ccc(cc2Cl)[C@H]1O [oritavancin] | 97.2 | 97.7 | 98 | 90.4 | 102 | – | – | – | – | – | 104 | 106 | 98.9 | 104 | 105 | 102 | 100 | 103 | 96.5 | 102 | > 10 | – | > 10 | > 10 | 0 | – | 0 | 0 | 108 | 113 | 93.2 | 106 | 95.7 | 0 | > 10 |
| C=C1CCN([C@H](C)[C@](O)(Cn2cncn2)c2ccc(F)cc2F)CC1 [efinaconazole] | 96.9 | 98.3 | 100 | 91.8 | 78.3 | 88 | 99.3 | 94.7 | 96.9 | 91.4 | 102 | 98.3 | 92.4 | 95.9 | 91.5 | 99.2 | 101 | 96.2 | 103 | 96.1 | > 10 | > 10 | > 10 | > 10 | 1.7 | 0 | 0 | 0 | – | – | – | – | – | – | – |
| Cc1cn(C[C@H](N)C(=O)O)c(=O)n(Cc2ccsc2C(=O)O)c1=O [UBP-310] | 99.7 | 93.6 | 101 | 93 | 99.5 | – | – | – | – | – | 96.6 | 91.3 | 94.6 | 91.2 | 88.1 | 98.8 | 97.3 | 98.5 | 97 | 98.5 | > 10 | – | > 10 | > 10 | 0 | – | 0 | 0 | 97.3 | 101 | 98.3 | 97.6 | 97.3 | 0 | > 10 |
| O=C(O)/C=C/c1ccc(O)cc1 [naringeninic-acid] | 88 | 91.5 | 86.1 | 104 | 85.4 | 93.2 | 109 | 100 | 109 | 108 | 92 | 108 | 97.5 | 96.8 | 94 | 102 | 103 | 98.9 | 106 | 101 | > 10 | > 10 | > 10 | > 10 | 0.1 | 0 | 0 | 0 | – | – | – | – | – | – | – |
| CC[C@H]1OC(=O)[C@H](C)[C@@H](O[C@H]2C[C@@](C)(OC)[C@@H](O)[C@H](C)O2)[C@H](C)[C@@H](O[C@@H]2O[C@H](C)C[C@H](N(C)C)[C@H]2O)[C@](C)(OC)C[C@@H](C)C(=O)[C@H](C)[C@@H](O)[C@]1(C)O [clarithromycin] | 102 | 103 | 112 | 100 | 90.7 | 93.1 | 107 | 94.5 | 104 | 99.5 | 104 | 104 | 108 | 98 | 99.8 | 99.3 | 102 | 102 | 96.1 | 98.7 | > 10 | > 10 | > 10 | > 10 | 0 | 0 | 0 | 0 | – | – | – | – | – | – | – |
| C=C(NC(=O)C(=C)NC(=O)c1csc(C2=N[C@@H]3c4csc(n4)[C@H]4NC(=O)c5csc(n5)[C@H]([C@](C)(O)[C@@H](C)O)NC(=O)[C@H]5CSC(=N5)/C(=C/C)NC(=O)[C@H]([C@@H](C)O)NC(=O)c5csc(n5)[C@]3(CC2)NC(=O)[C@H](C)NC(=O)C(=C)NC(=O)[C@H](C)NC(=O)[C@H]([C@@H](C)CC)N[C@@H]2C=Cc3c([C@H](C)O)cc(nc3[C@H]2O)C(=O)O[C@@H]4C)n1)C(N)=O [thiostrepton] | 102 | 89.3 | 89.5 | 82.9 | 96.9 | 101 | 95 | 97.8 | 99.1 | 110 | 111 | 102 | 81 | 87.6 | 84.5 | 100 | 94 | 95.8 | 75.3 | 93.6 | > 10 | > 10 | > 10 | > 10 | 0.2 | 0 | 4.3 | 0.7 | – | – | – | – | – | – | – |

From the supplement of paper PMC13380429
